The record followed here is ChEMBL document CHEMBL5260832, “Hepatoprotective natural triterpenoids” (Eur J Med Chem, 2018).

The species entered for data set [1] is Mus musculus. The data set is described as follows: Hepatoprotective activity in mouse model of CCl4-induced liver injury assessed as reduction in AST level at 100 microg/ml (reference value: 5.9 U/mL). Conditions: dose 100 µg/ml. Type of data set: functional.
Data set [2] is described as follows: Hepatotoxicity in GaIN-induced rat model of liver injury assessed as reduction in ALT level at 4 mg/kg relative to control. Type of data set: toxicity, organism-based. Also on record: scale not given: the % may be the effect or the level left. Conditions: in vivo.
For data set [3], the system named is Mus musculus. The data set is described as follows: Hepatoprotective activity in mouse model of D-GaIN/LPS-induced liver injury assessed as inhibition of beta-glucuronidase secretion at […] relative to control. It is filed as functional. Also on record: scale not given: the % may be the effect or the level left. As to conditions: dose 10 µg/ml.
A short description of data set [4]: Hepatotoxicity in CCl4-induced liver damage in ICR mouse model assessed as reduction in sGOT level at 10 mg/kg relative to control. It is filed as toxicity, organism-based. Also on record: scale not given: the % may be the effect or the level left. As to conditions: in vivo.
Data set [5] in a line: Hepatotoxicity in CCl4-induced liver damage in ICR mouse model assessed as reduction in sGPT level at 10 mg/kg relative to control. Conditions: in vivo. Type of data set: toxicity, organism-based. Also on record: scale not given: the % may be the effect or the level left.
Data set [6] can be described thus: Antiproliferative activity against rat HSC-T6 assessed as reduction in cell viability at 100 uM measured at 48 hrs by MTT assay relative to control. Type of data set: functional. (Tetrazolium dyes change colour on reduction, which living cells bring about.)
The subject of data set [7] is Rattus norvegicus. The experiment in a line: Hepatoprotective activity in CCl4-induced rat model of liver injury assessed as reduction in ALT level at 4 mg/kg relative to control. It is filed as functional. Also on record: scale not given: the % may be the effect or the level left.
Data set [8] concerns Mus musculus. The data set is described as follows: Hepatoprotective activity against CCl4-induced mouse acute liver injury model assessed as decreased sGOT level at 15 mg/kg, ip relative to control. Type of data set: functional. The arrangement: scale not given: the % may be the effect or the level left.
In data set [9] the test system is Mus musculus. The experiment in a line: Hepatoprotective activity against CCl4-induced mouse chronic liver injury model assessed as decreased sGOT level at 15 mg/kg, ip relative to control. Also on record: scale not given: the % may be the effect or the level left. Type of data set: functional.
Data set [10] relates to Mus musculus. The experiment in a line: Hepatoprotective activity against CCl4-induced mouse acute liver injury model assessed as decreased sGPT level at 15 mg/kg, ip relative to control. Type of data set: functional. Also on record: scale not given: the % may be the effect or the level left.
Data set [11] has as its system Mus musculus. The data set is described as follows: Hepatoprotective activity against CCl4-induced mouse chronic liver injury model assessed as decreased sGPT level at 15 mg/kg, ip relative to control. Also on record: scale not given: the % may be the effect or the level left. It is filed as functional.
The test system of data set [12] is Mus musculus. The experiment in a line: Hepatoprotective activity against CCl4-induced mouse acute liver injury model assessed as decreased LDH level at 15 mg/kg, ip relative to control. Type of data set: functional. The arrangement: scale not given: the % may be the effect or the level left.
Data set [13] concerns Mus musculus. The experiment in a line: Hepatoprotective activity against CCl4-induced mouse chronic liver injury model assessed as decreased LDH level at 15 mg/kg, ip relative to control. It is filed as functional. The arrangement: scale not given: the % may be the effect or the level left.
The subject of data set [14] is Mus musculus. The data set is described as follows: Hepatoprotective activity against CCl4-induced mouse acute liver injury model assessed as decreased AP level at 15 mg/kg, ip relative to control. It is filed as functional. Also on record: scale not given: the % may be the effect or the level left.
In data set [15] the test system is Mus musculus. The data set is described as follows: Hepatoprotective activity against CCl4-induced mouse chronic liver injury model assessed as decreased AP level at 15 mg/kg, ip relative to control. It is filed as functional. The arrangement: scale not given: the % may be the effect or the level left.
The test system of data set [16] is Hepatocyte. The experiment in a line: Hepatoprotective activity against D-GaIN-induced toxicity in mouse hepatocyte relative to control. Type of data set: functional, cell-based.
For data set [17], the system named is Mus musculus. The experiment in a line: Hepatoprotective activity in mouse model of D-GaIN/LPS-induced liver injury assessed as inhibition of sAST secretion at 100 mg/kg, po relative to control. Type of data set: functional.
Data set [18] concerns Mus musculus. The data set is described as follows: Hepatoprotective activity in mouse model of D-GaIN/LPS-induced liver injury assessed as inhibition of sALT level secretion at 100 mg/kg, po relative to control. Type of data set: functional.
Data set [19] has as its system Hepatocyte. The experiment in a line: Hepatoprotective activity against D-GaIN-induced toxicity in mouse hepatocytes.
The species named for data set [20] is Mus musculus. The data set is described as follows: Hepatoprotective activity in mouse model of CCl4-induced liver injury assessed as reduction in ALT level at 100 microg/ml (reference value: 40.2 U/mL). It is filed as functional. As to conditions: dose 100 µg/ml.

On to `C[C@H]1[C@H](C)CC[C@]2(C)CC[C@]3(C)C(=CC[C@@H]4[C@@]5(C)CC[C@H](O)C(C)(C)[C@@H]5CC[C@]43C)[C@H]12`, for which, in data set [1], the Activity was 40.22 U/ml.

On to `COC(=O)[C@]12CC[C@@H](C)[C@H](C)[C@H]1C1=CC[C@@H]3[C@@]4(C)C[C@@H](OCc5ccccc5)C5OC(C)(C)OC[C@@]5(C)[C@@H]4CC[C@@]3(C)[C@]1(C)CC2` (stereo not given in full), for which, in data set [2], the Activity was 33.6%.

Consider `CC(C)=CCC[C@]1(C)CC[C@]2(C)[C@H]3CC=C4[C@@H](CC[C@H](O)C4(C)C)[C@]3(C)CC[C@@]2(C)C1`, for which the Activity in data set [3] amounted to 57%.

`C=C(C)[C@@H]1CC[C@]2(C)CC[C@]3(C)[C@H](CC[C@@H]4[C@@]5(C)CC[C@@H](OC(=O)CCCCCCCCCCCCCCC)C(C)(C)[C@@H]5CC[C@]43C)[C@@H]12`: the figures for the Activity in data set [4] and in [5] were 9.2% and 6.9%, respectively.

For the compound `C[C@H]1[C@@H](O)CC[C@@H]2[C@]1(C)CC[C@H]1[C@@]2(C)CC[C@@]2(C)[C@@H]3CC(C)(C)CC[C@]3(C)CC[C@]12C` [EPIFRIEDELINOL], in [6], the Activity was 61%.

As for `COC(=O)[C@]12CC[C@@H](C)[C@H](C)[C@H]1C1=CC[C@@H]3[C@@]4(C)C[C@@H](OC)[C@H](OC(C)=O)[C@@](C)(COC(C)=O)[C@@H]4CC[C@@]3(C)[C@]1(C)CC2`, in data set [7], the Activity was determined as 33.3%.

Take `CC1(C)CC[C@]2(C)CC[C@]3(C)C(=CC[C@@H]4[C@@]5(C)CCC(=O)C(C)(C)[C@@H]5C(O)C[C@]43C)[C@@H]2C1` (stereo not given in full): the Activity in data set [8] was 51.3%; in data set [9], 38.8%; in data set [10], 45.3%; in [11] it was 36.4%; in [12], 45%; in data set [13], 24.8%. For the same compound, the Activity in data set [14] is 40.6%; in [15], 55.3%.

Turning to `C[C@@H]1CC[C@]2(C(=O)O[C@@H]3O[C@H](CO)[C@@H](O)[C@H](O)[C@H]3O)CC[C@]3(C)C(=CC[C@@H]4[C@@]5(C)C[C@@H](O)C(=O)C(C)(C)[C@@H]5CC[C@]43C)[C@@H]2[C@]1(C)O`, the IC50 in [16] and in data set [19] was 46.7 µM in each case. The values for the inhibition in vivo at 100 mg/kg in [17] and in data set [18] were 76.8% and 78.4%, respectively.

As to `C=C1[C@H](O)C[C@]2(C)CC[C@]3(C)C(=C[C@@H](O)[C@@H]4[C@@]5(C)CC[C@H](OC(C)=O)C(C)(C)[C@@H]5CC[C@]43C)[C@@H]2[C@@H]1C`, in data set [20], the Activity is 15.7 U/ml.
